Source: US6521179B1, “Sterilization” (Biomedical Design, Inc., priority 1999, dated 2003)

Assays:
[1] = system: Bacillus Subtilis (ATCC 9372)spores; assay: Sterilization of spores inoculated in cups with cross-linked porcine heart valve leaflets (Example 1); assay type: cell-based; settings: EDC 25 mM, 50 mM and 70 mM, 100 mM ethanolamine, 20% isopropyl alcohol, HEPES pH 6.5, 40° C., after one day
Experimental: When porcine aortic roots that are fixed are employed, they are cross-linked according to the method described in U.S. Pat. No. 5,447,536 or glutaraldehyde-fixed or cross-linked or fixed with any other method used to preserve tissue. After fixation, the tissue is stored in 10 mM HEPES, 0.85% NaCl, 20% isopropyl alcohol, pH 7.4, at 4° C. The sterility tests described in the following examples are conducted in the presence of bovine pericardium or porcine heart valve tissue. After such tissue is inoculated with microorganisms for test purposes and then submitted to sterilization, the solution is filtered through a 0.45 micron filter attached to a funnel (filter funnel). The tissue is washed for 20 minutes in a reciprocating shaker in the presence of peptone water containing Tween 80 in order to extract all indigenous spores or microorganisms from the tissue. This solution is then filtered through the same respective filter. The filters are then rinsed with peptone water to eliminate residual chemicals on the membrane that may prevent growth of the organisms tested. The membrane filters are incubated on solid agar TSA plates (Millipore) at about 32° to 33° C., e.g. 32.5° C. All microbiological testing is performed in a biological laminar flow hood to prevent contamination. […]

[2] = EDC sterilization of pretreated cross-linked porcine aortic root tissue without lower alkanol; settings: tissue pretreated with acetic anhydride or a mixture of TRIS and isopropylamine; absence of a lower alkanol
spores Bacillus subtilis = assay: Sterilization efficacy of EDC with blocking agents, spores in glass ampoules (Example 3); assay type: cell-based; settings: EDC in HEPES buffer containing 20% isopropyl alcohol, in the presence or absence of tissue
Experimental: EDC sterilization in HEPES buffer containing 20% isopropyl alcohol, carried out either in the presence or in the absence of tissue, leads to complete kill of the spores Bacillus subtilis. The following experiment was designed to test whether the sterilization efficacy of EDC remains substantially unaffected by the presence of […]. […] After 10 minutes, 10 mL of Solutions A, B, C, D, E and F containing 25 mM EDC were added, the ampoules were heat-sealed and placed at 40° C. After 24 hours, the solutions from the ampoules were filtered to recover the spores, the filters were washed with 0.1% peptone water, and these were incubated on TSA plates for up to 10 days at 32° C. to 33° C., after which the colonies were enumerated.

CCN=C=NCCCN(C)C.Cl [EDC, 1-ethyl-3(3-dimethylaminopropyl) carbodiimide hydrochloride]
kill of spores [1]: complete kill | sterilization of tissue samples [2]: effectively sterilized | kill of spores (spores Bacillus subtilis): complete kill
